Assay results as given in PubChem BioAssay (NCI).
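Method: 48-hour compound exposure of cells in 96-well plates, five concentrations, linear interpolation of endpoints. At the GI50, growth is halved. TGI denotes the concentration required for complete inhibition of growth.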 *1 amine or outer side, *2 acyl side, *3 side chain or, on linkers, in order; H or OH if unused. Where a SMILES comes first, the peptide text is derived from it. The star is where a group is joined. γGlu = O=C(O)[CH](CCC(=O)[*:2])N[*:1]; Cbz = O=C(OCc1ccccc1)*; NHOH = ON*

How the values were obtained:
Experiment in all cases: NCI-60 cell line screen, 48 h
T-47D breast = tested on: T-47D breast
SK-OV-3 ovarian = tested on: SK-OV-3 ovarian
UACC-257 melanoma = tested on: UACC-257 melanoma
HCT-116 colon = tested on: HCT-116 colon
SN12C renal = tested on: SN12C renal
NCI-H460 lung = tested on: NCI-H460 lung
HL-60(TB) leukemia = tested on: HL-60(TB) leukemia
KM12 colon = tested on: KM12 colon
MCF7 breast = tested on: MCF7 breast
A498 renal = tested on: A498 renal

Structure (SMILES) | TGI (T-47D breast) [µM] | TGI (SK-OV-3 ovarian) [µM] | TGI (UACC-257 melanoma) [µM] | TGI (HCT-116 colon) [µM] | TGI (SN12C renal) [µM] | TGI (NCI-H460 lung) [µM] | TGI (HL-60(TB) leukemia) [µM] | TGI (KM12 colon) [µM] | TGI (MCF7 breast) [µM] | TGI (A498 renal) [µM] | GI50 (T-47D breast) [µM] | GI50 (UACC-257 melanoma) [µM] | GI50 (SN12C renal) [µM] | GI50 (NCI-H460 lung) [µM] | GI50 (HL-60(TB) leukemia) [µM] | GI50 (KM12 colon) [µM] | GI50 (MCF7 breast) [µM] | GI50 (A498 renal) [µM] | GI50 (SK-OV-3 ovarian) [µM] | GI50 (HCT-116 colon) [µM]
COc1cc(OC)c(-n2[nH]c(=O)n(C)c2=O)c(OC)c1 | > 100 | > 100 | > 100 | > 100 | > 100 | > 100 | > 100 | > 100 | > 100 | > 100 | – | – | – | – | – | – | – | – | – | –
O=C1O/C(=C(\Br)c2ccc([N+](=O)[O-])cc2)c2ccccc21 | > 100 | > 100 | > 100 | > 100 | > 100 | > 100 | > 67.1 | > 100 | > 100 | > 100 | – | – | – | – | – | – | – | – | – | –
O=C(Nc1ccc(Cl)cc1)c1cc(S(=O)(=O)Nc2nc3ncccc3[nH]2)c(SSc2cc(Cl)c(C(=O)Nc3ccc(Cl)cc3)cc2S(=O)(=O)Nc2nc3ncccc3[nH]2)cc1Cl | > 100 | > 100 | > 100 | > 100 | > 100 | > 100 | > 100 | > 100 | > 100 | > 100 | – | – | – | – | – | – | – | – | – | –
CN(C)N1C(=C(C#N)C#N)C(c2ccccc2)CC1C#N (centres undefined) | > 100 | > 100 | > 100 | > 100 | > 100 | – | > 100 | > 100 | > 100 | > 100 | – | – | – | – | – | – | – | – | – | –
COc1ccc(-c2nc(-c3nc4cc(Cl)c(Cl)cc4[nH]3)c3ccccn23)cc1 | > 100 | – | > 100 | – | > 100 | > 100 | > 100 | > 100 | > 100 | > 100 | 4.06 | 5.77 | > 100 | 3.01 | > 100 | > 100 | 7.2 | 4.2 | – | –
O=c1[nH]nc(-c2ccc3ccccc3c2)[nH]1 | > 100 | – | > 100 | > 100 | > 100 | > 100 | > 100 | > 100 | > 100 | > 100 | – | – | – | – | – | – | – | – | – | –
C[N+](C)(N)Cc1nc(-c2ccc(Cl)cc2)no1 | > 100 | > 100 | > 100 | > 100 | > 100 | > 100 | > 100 | > 100 | > 100 | > 100 | – | – | – | – | – | – | – | – | – | –
Cc1ccc(S(=O)(=O)N(CC(O)COc2ccccc2)c2c(F)c(F)c(F)c(F)c2F)cc1 (centres undefined) | 52.4 | 43.8 | – | 44 | 37.7 | 30.3 | 42.2 | > 100 | 23.2 | 33.2 | – | – | – | – | – | – | – | – | – | –
CCCCOC(=O)Nc1ccc(S(=O)(=O)Nc2c(Cl)cccc2Cl)cc1 | 83.8 | 75.3 | > 100 | 57.5 | > 100 | > 100 | > 100 | 99.4 | 92.4 | 63.1 | – | – | – | – | – | – | – | – | – | –
CCOC(=O)CCC(NC(=O)C(CC(=O)OC)NC(=O)OCc1ccccc1)C(=O)NC(CC(=O)OC)C(=O)NC(CCC(=O)OCC)C(=O)NC(CC(=O)OC)C(=O)NC(CCC(=O)OCC)C(=O)NC(CC(=O)OCC)C(=O)OCC (centres undefined) (Cbz-D(OMe)E(OEt)D(OMe)E(OEt)D(OMe)E(OEt)D(OEt)-OEt; configuration not given here) | > 100 | – | > 100 | > 100 | > 100 | > 100 | > 100 | – | > 100 | > 100 | – | – | – | – | – | – | – | – | – | –
Cc1c2ccccc2c(/C=N/NC(=O)CSCC(=O)N/N=C/c2c3ccccc3c(C)c3ccccc23)c2ccccc12 | > 82.4 | > 100 | > 100 | > 100 | > 100 | > 100 | > 100 | > 100 | > 78.7 | > 93.3 | – | – | – | – | – | – | – | – | – | –
COc1ccc(C2c3cc4c(cc3OC(N3CCOCC3)C2C)OCO4)cc1OC (centres undefined) | > 100 | 87.7 | > 100 | 50.8 | > 100 | > 63.8 | > 29.1 | > 100 | > 96 | 43 | – | – | – | – | – | – | – | – | – | –
O=S(=O)(O)c1cc(O)c(N=NC2S(=O)(=O)OCCOS2(=O)=O)c2ccccc12 | > 100 | > 100 | > 100 | > 100 | > 100 | > 100 | > 100 | > 100 | > 100 | > 100 | – | – | – | – | – | – | – | – | – | –
CCOC(=O)c1nc(SC)sc1NC(=O)c1ccc(OC)cc1 | > 100 | > 100 | > 100 | 48.2 | > 100 | > 100 | > 100 | > 100 | > 100 | 84.6 | – | – | – | – | – | – | – | – | – | –
NC(CCC(=O)NC(CCC(=O)NO)C(=O)NCC(=O)O)C(=O)O (centres undefined) (γGlu-Glu(NHOH)-Gly-OH; configuration not given here) | > 100 | > 100 | > 100 | > 100 | > 100 | > 100 | > 100 | > 100 | > 100 | > 100 | – | – | – | – | – | – | – | – | – | –
COc1ccccc1C1C(C#N)=C(N)SC(N)=C1C#N | > 100 | > 100 | > 100 | > 100 | 42 | > 100 | > 100 | > 100 | > 100 | > 100 | 35.5 | > 100 | 15.5 | 49.8 | 50.3 | 37.8 | 30.6 | > 100 | > 100 | 43.8
CN(C(=O)Cc1cc(Cl)c(Cl)cc1NC(=O)CCCN)[C@H]1CCCC[C@@H]1N1CCCC1 | > 100 | > 100 | 33.3 | > 100 | > 100 | – | 52.8 | 36.7 | 44.2 | 32.4 | – | – | – | – | – | – | – | – | – | –
O=C(CSc1nc2ccccc2c(=O)n1-c1ccccc1)N=Nc1c(O)[nH]c2ccc(Br)cc12 | 28.6 | 13.1 | 52 | – | 4.22 | 41.8 | 12.8 | 14 | > 27.9 | 40.8 | – | – | – | – | – | – | – | – | – | –
CCOC(=O)CCCN | > 100 | > 100 | > 100 | > 100 | > 100 | > 100 | > 100 | > 100 | > 100 | > 100 | – | – | – | – | – | – | – | – | – | –
